# Measured values from the supplement of paper PMC10307832.
# Tests used:
# Experiment in all cases: relative viability (nuclei count vs DMSO), 5 days (fraction); higher = more cells survive
# RO-3306 + Alpelisib = compound: C1=CC2=C(C=CC(=C2)C=C3C(=O)NC(=NCC4=CC=CS4)S3)N=C1 [RO-3306] + Cc1nc(NC(=O)N2CCC[C@H]2C(N)=O)sc1-c1ccnc(C(C)(C)C(F)(F)F)c1 [Alpelisib] (partner 2 µM)
# Method in brief: (§1)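 The day after seeding in 1536-well plates, lung cancer cell lines were treated by pin tool with a single drug, or with a fixed anchor-drug dose together with five library-drug doses (not always all listed) in √10 steps. After 5 days, a combined fix-and-stain solution (final 0.05% Triton X-100, 1% formaldehyde, 1 ug/ml Hoechst) was added. Nuclei counted on 4× images gave relative viability as treated counts over vehicle counts, reported as the median of duplicate plates.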
# RO-3306 + Linsitinib = compound: C1=CC2=C(C=CC(=C2)C=C3C(=O)NC(=NCC4=CC=CS4)S3)N=C1 [RO-3306] + C[C@]1(O)C[C@@H](c2nc(-c3ccc4ccc(-c5ccccc5)nc4c3)c3c(N)nccn32)C1 [Linsitinib] (partner 1 µM)
# Method in brief: as §1
# [1] = compound: O=S(=O)(c1ccccc1)N(CC(F)(F)F)c1ccc(C(O)(C(F)(F)F)C(F)(F)F)cc1 + Nc1nc2[nH]cc(CCc3ccc(C(=O)N[C@@H](CCC(=O)O)C(=O)O)cc3)c2c(=O)[nH]1 [Pemetrexed] (partner 0.2 µM)
# Method in brief: as §1
# [2] = compound: O=S(=O)(c1ccccc1)N(CC(F)(F)F)c1ccc(C(O)(C(F)(F)F)C(F)(F)F)cc1 + CC(=O)Nc1cccc(-n2c(=O)n(C3CC3)c(=O)c3c(Nc4ccc(I)cc4F)n(C)c(=O)c(C)c32)c1 [Trametinib] (partner 0.02 µM)
# Method in brief: as §1
Cell Line,relative viability (RO-3306 + Alpelisib; first compound 0.01 µM),relative viability (RO-3306 + Alpelisib; first compound 0.03162 µM),relative viability (RO-3306 + Alpelisib; first compound 0.1 µM),relative viability (RO-3306 + Alpelisib; first compound 0.3162 µM),relative viability (RO-3306 + Alpelisib; first compound 1 µM),relative viability (RO-3306 + Linsitinib; first compound 0.01 µM),relative viability (RO-3306 + Linsitinib; first compound 0.03162 µM),relative viability (RO-3306 + Linsitinib; first compound 0.1 µM),relative viability (RO-3306 + Linsitinib; first compound 0.3162 µM),relative viability (RO-3306 + Linsitinib; first compound 1 µM),relative viability ([1]; first compound 0.8 µM),relative viability ([1]; first compound 2.53 µM),relative viability ([1]; first compound 8 µM),relative viability ([2]; first compound 0.8 µM),relative viability ([2]; first compound 2.53 µM),relative viability ([2]; first compound 8 µM)
NCI-H23,0.729,0.685,0.573,0.69,0.517,0.774,0.443,0.633,0.514,0.569,0.706,0.654,0.74,0.392,0.379,0.343
NCI-H2405,0.801,0.707,0.784,0.874,0.695,0.994,0.873,0.896,0.921,0.944,1.17,1.05,1.01,0.673,0.615,0.707
HARA,1.05,0.754,0.953,0.973,0.795,0.861,0.789,0.902,1.02,1.35,0.254,–,0.269,0.561,–,0.634
HCC-44,0.853,0.836,0.817,1.03,0.832,0.718,0.674,0.68,0.663,0.693,0.635,0.627,0.702,1.01,0.925,0.918
CAL-12T,1.38,1.26,1.17,1.19,1.37,0.889,0.607,0.889,0.824,0.874,1.29,1.06,0.982,0.247,0.265,0.238
NCI-H838,0.992,0.972,1.01,1.04,0.999,1.11,0.742,1.05,1.15,0.92,0.236,0.242,0.259,0.604,0.474,0.596
LK-2,1.27,0.897,1.02,1.31,1.03,0.552,0.495,0.635,0.425,0.554,0.283,0.266,0.298,0.69,0.548,0.704
NCI-H358,0.868,0.711,0.759,0.809,0.556,0.827,0.642,0.656,0.892,0.517,–,0.177,0.181,–,0.118,0.118
SW 1573,0.701,–,0.848,0.832,0.905,0.869,0.721,0.805,0.762,0.727,0.904,0.76,0.877,0.638,0.537,0.472
LCLC-103H,0.919,0.976,1.03,0.962,0.948,1.03,0.934,1.16,1.05,1.05,0.457,0.465,0.467,0.71,0.731,0.739
HCC-827,1.04,1.05,0.921,0.946,1.06,1.01,0.916,0.99,0.959,0.992,0.266,0.246,0.239,0.527,0.503,0.244
NCI-H1666,1.02,0.743,0.891,0.973,0.802,0.829,0.693,0.684,0.823,0.834,0.768,0.818,0.832,0.902,0.845,0.704
NCI-H460,0.571,–,0.503,0.656,0.426,1.14,–,0.901,1.3,0.889,0.0543,0.0599,0.0652,0.198,0.109,0.147
NCI-H2087,1.12,1.2,1.08,0.91,1.08,0.977,0.982,1.06,1.05,0.928,0.459,0.593,0.633,0.26,0.173,0.2
NCI-H2085,1.07,0.926,0.922,0.968,0.952,0.882,0.755,0.884,0.866,0.84,0.751,0.8,0.869,0.471,0.496,0.472
NCI-H1299,1.07,0.808,1.05,1.07,1.12,1.1,0.913,1.03,1.12,1.08,–,–,–,–,–,–
ChaGo-K-1,–,–,–,–,–,–,–,–,–,–,0.263,0.264,0.272,0.998,0.862,0.884
A-427,1.13,0.575,1,1.06,1.02,1.14,1.1,1.07,1.06,1.21,0.939,0.937,1.05,0.722,0.645,0.682
NCI-H2170,0.772,0.687,0.765,0.825,0.77,–,–,–,–,–,0.256,0.274,0.28,0.973,0.779,0.814
NCI-H441,1,0.556,0.563,0.657,0.66,0.53,0.385,0.479,0.554,0.405,0.25,0.262,0.285,0.387,0.348,0.423
NCI-H2347,1.13,0.759,1.01,1.05,0.951,1.01,0.877,0.999,1.01,0.795,0.47,0.445,0.395,0.304,0.277,0.292
